Each block holds one compound with its values, some of them ahead of it.
Assays:
[1] = tested on: canine transitional cell carcinoma; test: Clinical test of Mogamulizumab combined with Piroxicam versus Piroxicam alone
Experimental: To the control group, Piroxicam alone was administered (14 cases). The number of CCR4-positive Tregs in the peripheral blood and a tumor size were evaluated before and after the administration.
In the figure, the terms “PR,” “SD,” and “PD” indicate definitions regarding a change in the size of a tumor in the midcourse of a treatment according to RECIST (Response Evaluation Criteria in Solid Tumors), which are evaluation criteria regarding therapeutic effects on solid cancers. Specifically, PR (Partial Response) indicates a state in which a sum of the sizes of tumors has been reduced by 30% or more, SD (Stable Disease) indicates a state in which the size of a tumor has not changed, and PD (Progressive Disease) indicates a state in which a sum of the sizes of tumors has been increased by 20% or more and the size has been increased by 5 mm or more as an absolute value, or a state in which a new lesion has appeared.

prostate cancer = test: Clinical test on dogs, antitumor effects; type: in vivo, dog; settings: 2/4 cases, 1 mg/kg intravenous every three weeks; FIG. 16
[2] = tested on: canine transitional cell carcinoma cell line; test: Cancer-bearing mouse models, NOG mice transplanted with canine tumor cells; type: in vivo
Experimental: A comparison was made among the groups, in terms of the tumor volume of the transplanted transitional cell carcinoma cells. […] The tumor tissues were collected from each group at the end point, and the collected tumor tissues were subjected to a histopathologic examination involving H & E (Hematoxylin-Eosin) staining. […] In FIG. 11, the whitish portion in the black-and-white photograph indicates a focus of necrosis. […] Furthermore, intratumoral infiltration of Tregs was evaluated by performing immunohistochemistry on Foxp3. […] In FIG. 12, the portions seen as black points in the black-and-white photograph are sites in which Foxp3-positive Tregs are present.

breast cancer = test: Clinical test on dogs, antitumor effects; type: in vivo, dog; settings: 1/2 cases, 1 mg/kg intravenous every three weeks; FIG. 17
[3] = tested on: transitional cell carcinoma; test: Clinical test on dogs, antitumor effects; type: in vivo, dog; settings: 5/11 cases, 1 mg/kg intravenous every three weeks; FIG. 15
[4] = tested on: CCR4-positive T cells in blood; test: Single intravenous administration of anti-human CCR4 antibody to healthy dog; type: in vivo
From the text: Furthermore, the effects were sustained for 3 to 4 weeks. […] These side effects were improved 1 week after the administration, without any treatments.

canine CCR4 = target: T1, canine CCR4 (Canis lupus familiaris, UniProt Q8MJW8); test: Chemotaxis assay with a membrane chamber, canine lymphocyte cell line CL-1 and canine recombinant CCL17; type: cell-based; settings: canine lymphocyte cell line CL-1; FIG. 8
T1 construct: Using a canine lymphocyte cell line (CL-1) expressing canine recombinant CCL17 and CCR4, a chemotaxis assay was carried out; endogenous in cells; host or cells: CL-1 canine lymphocyte cell line
T1 sequence (Q8MJW8 1-360): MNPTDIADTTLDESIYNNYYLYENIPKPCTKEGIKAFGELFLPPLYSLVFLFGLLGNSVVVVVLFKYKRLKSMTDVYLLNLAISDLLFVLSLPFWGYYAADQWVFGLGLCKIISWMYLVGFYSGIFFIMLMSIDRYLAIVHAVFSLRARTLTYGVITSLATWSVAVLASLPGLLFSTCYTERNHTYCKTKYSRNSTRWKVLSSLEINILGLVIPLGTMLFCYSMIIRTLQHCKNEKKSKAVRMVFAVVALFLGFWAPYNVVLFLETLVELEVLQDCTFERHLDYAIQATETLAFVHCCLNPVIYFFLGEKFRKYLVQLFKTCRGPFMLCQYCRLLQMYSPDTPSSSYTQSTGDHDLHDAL
Experimental: Thus, the cross-reactivity of these inhibitors with canine CCR4 was studied. Using a canine lymphocyte cell line (CL-1) expressing canine recombinant CCL17 and CCR4, a chemotaxis assay was carried out with a membrane chamber.

[5] = tested on: CCR4-positive Tregs in the peripheral blood; test: Clinical test on dogs with various tumors, all 17 cases; type: in vivo, dog; settings: 1 mg/kg intravenous every three weeks
From the text: In the case of prostate cancer, 2/4 cases (50%) had partial response, and 2/4 cases (50%) were stable (FIG. 16). In the case of breast cancer, 1/2 cases (50%) had partial response, and 1/2 cases (50%) was stable (FIG. 17). […] However, all of the side effects were mild.

Compound: Mogamulizumab: anti-human CCR4 antibody (Kyowa Kirin Co., Ltd.), a neutralizing antibody
- number of CCR4-positive Tregs in the peripheral blood ([1]; after Mogamulizumab 1 mg/kg IV every three weeks plus Piroxicam 0.3 mg/kg PO daily, FIG. 18, 19): reduced
- response percentage according to RECIST ([1]; combined use group with Mogamulizumab versus single administration group of Piroxicam, FIG. 22, 23): higher response percentage
- progression-free survival periods (PFS) ([1]; combined use group with Mogamulizumab versus single administration group of Piroxicam, FIG. 24): better improvement
- overall survival periods (OS) ([1]; combined use group with Mogamulizumab versus single administration group of Piroxicam, FIG. 25): better improvement
- tumor (mass) size / tumor volume ([1]; combined use group with Mogamulizumab, FIG. 20, 21): reduced
- cases with partial response (prostate cancer): 50%
- intratumoral infiltration of Tregs (Foxp3 immunohistochemistry) ([2]; combined use group of canine PBMC and Mogamulizumab versus canine PBMC group, FIG. 12, 13): significantly suppressed
- focus of necrosis in tumor tissue (H & E staining) ([2]; combined use group of canine PBMC and Mogamulizumab, compared with other groups, FIG. 11): an expansion of the focus of necrosis was observed
- growth of the tumor (tumor volume) ([2]; combined use group of canine PBMC and Mogamulizumab, FIG. 10): significantly suppressed
- cases with partial response (breast cancer): 50%
- cases with partial response [3]: 45.5%
- side effects ([4]; 1 mg/kg intravenous): nausea, a slight increase in ALP, and a slight increase in CRP
- time after administration at which side effects improved without any treatments ([4]; 1 mg/kg intravenous): 1 week
- number of CCR4-positive T cells in blood ([4]; 1 mg/kg intravenous, flow cytometry, FIG. 9): reduced by half
- side effects ([4]; 0.01 to 0.1 mg/kg intravenous): no side effects were found
- migration of CL-1 by the recombinant CCL17 (canine CCR4): significantly suppressed
- side effect: facial edema and/or redness, cases ([5]; 1/17 cases): 5.9%
- side effect: slight increase in ALP, cases ([5]; 3/17 cases): 17.6%
- side effect: vomiting, cases ([5]; 3/17 cases): 17.6%
- severity of all of the side effects ([5]; 17 cases): mild
- number of CCR4-positive Tregs in peripheral blood ([5]; all cases, FIG. 14): drastically reduced

- migration of CL-1 by the recombinant CCL17 (canine CCR4): significantly suppressed
Compound: COc1cc2nc(N3CCC(N4CCCCC4)CC3)nc(NC3CCCCCC3)c2cc1OC.Cl.Cl [C-021, 2-[1,4′-bipiperidin]-1′-yl-N-cycloheptyl-6,7-dimethoxy-4-quinazolinamine dihydrochloride]

From US12018083B2, “Method for suppressing regulatory T cell infiltration by CCR4 inhibition and method for treating canine neoplastic disease” (NIPPON ZENYAKU KOGYO CO., LTD., priority 2017, dated 2024)
